According to PubChem BioAssay AID1259408 (Genetic Toxicology Data Bank (GENE-TOX), 2018):
Calls of active or inactive are those of the source. How the calls were made is not given here.

Test system: GENE-TOX genotoxicity assays, various organisms and cells
Experiment: GENE-TOX mutagenicity studies
Conditions: for call: Assay Type: In vivo carcinogenicity studies
[1] = Species/Cell Type: Salmonella typhimurium (one or more of the five standard strains: TA98, TA100, TA1535, TA1537, and TA1538), Assay Type: Histidine reverse gene mutation, Ames assay, Assay Code: SAL+, Evaluation Type: Evaluation A (Pre-1980)
[2] = Species/Cell Type: Syrian hamster embryo (SHE) cells, Assay Type: Cell transformation, clonal assay, Assay Code: CTC+, Evaluation Type: Evaluation A (Pre-1980)
[3] = Species/Cell Type: Salmonella typhimurium, Assay Type: Forward and reverse gene mutation, host-mediated assay, Assay Code: HMA+, Evaluation Type: Evaluation A (Pre-1980)
[4] = Species/Cell Type: Saccharomyces cerevisiae, Assay Type: Mitotic recombination or gene conversion, Assay Code: YEH-, Evaluation Type: Evaluation A (Pre-1980)
[5] = Species/Cell Type: Salmonella typhimurium (one or more of the five standard strains: TA98, TA100, TA1535, TA1537, and TA1538), Assay Type: Histidine reverse gene mutation, Ames assay, Assay Code: SALT, Evaluation Type: Evaluation A (Pre-1980)
[6] = Species/Cell Type: Bacillus subtilis (H17 vs M45), Assay Type: Rec-assay, spot test, DNA effects (bacterial DNA repair), Assay Code: REW+, Evaluation Type: Evaluation A (Pre-1980)
[7] = Species/Cell Type: Bacillus subtilis (H17 vs M45), Assay Type: Rec-assay, spot test, DNA effects (bacterial DNA repair), Assay Code: REW-, Evaluation Type: Evaluation A (Pre-1980)
[8] = Species/Cell Type: Nonhuman, Assay Code: CCG+, Evaluation Type: Evaluation A (Pre-1980)
[9] = Species/Cell Type: Salmonella typhimurium (one or more of the five standard strains: TA98, TA100, TA1535, TA1537, and TA1538), Assay Type: Histidine reverse gene mutation, Ames assay, Assay Code: SAL-, Evaluation Type: Evaluation A (Pre-1980)
[10] = Species/Cell Type: Human, Assay Type: Sister-chromatid exchange (SCE) in vitro, Assay Code: SC1+D, Dose Response: With dose response, Evaluation Type: Evaluation B (Post-1980)
[11] = Species/Cell Type: Neurospora crassa, Assay Type: Reverse gene mutation, Assay Code: NER+, Evaluation Type: Evaluation A (Pre-1980)
[12] = Species/Cell Type: Neurospora crassa, Assay Type: Aneuploidy, chromosome aberrations, Assay Code: NEN-, Evaluation Type: Evaluation A (Pre-1980)
[13] = Species/Cell Type: Mammalian polychromatic erythrocytes, Assay Type: Micronucleus test, chromosome aberrations, Assay Code: MNT+, Evaluation Type: Evaluation B (Post-1980)

c1ccc2c(c1)-c1ccc3ccccc3c1C1OC21 (stereo not drawn)
mutagenic call (Species/Cell Type: Mouse prostate cells, Assay Type: Cell transformation, Assay Code: CTM-, Evaluation Type: Evaluation A (Pre-1980)): inactive; negative
mutagenic call [1]: active; positive
mutagenic call [2]: active; positive

O=C(CCN1CCCCC1)c1ccc2c(c1)OCO2
mutagenic call [3]: active; positive

COC(=O)C[C@@H]1Cc2cc3c(-c4c(OC)cc(O)c5c(O)c6c(cc45)C[C@@H](CC(=O)OC)OC6=O)c(OC)cc(O)c3c(O)c2C(=O)O1
mutagenic call [4]: inactive; negative
mutagenic call [5]: no conclusion

O=[Te](=O)(O)O
mutagenic call [6]: active; positive
mutagenic call [7]: inactive; negative

COC(=O)Cc1ccc(OC)c(CSC(=N)N)c1
mutagenic call (Species/Cell Type: Saccharomyces cerevisiae, Assay Type: Reverse gene mutation, Assay Code: YERT, Evaluation Type: Evaluation A (Pre-1980)): no conclusion

Cc1cc(-c2ccc(N/N=C3/C(=O)c4c(N)cc(S(=O)(=O)O)cc4C=C3S(=O)(=O)O)c(C)c2)ccc1N/N=C1/C(=O)c2c(N)cc(S(=O)(=O)O)cc2C=C1S(=O)(=O)O
mutagenic call [6]: active; positive
call [8]: active; positive
mutagenic call [9]: inactive; negative

N#CN(CCCC(NC(=O)c1ccccc1)C(N)=O)N=O (stereo not drawn)
mutagenic call (Species/Cell Type: Escherichia coli polA (W3119 vs P3478), Assay Type: Rec-assay, DNA effects (bacterial DNA repair), Assay Code: RE1+, Evaluation Type: Evaluation A (Pre-1980)): active; positive

O=c1[nH]c(=O)n([C@H]2C[C@H](O)[C@@H](CO)O2)cc1/C=C/Br
mutagenic call (Species/Cell Type: Human lymphocytes, Assay Type: Sister-chromatid exchange (SCE) in vitro, Assay Code: SCL+, Evaluation Type: Evaluation B (Post-1980)): active; positive
mutagenic call [10]: active; positive

Cc1ccc(O)c(C)c1
mutagenic call (Species/Cell Type: Human lymphocytes, Assay Type: Sister-chromatid exchange (SCE) in vitro, Assay Code: SCLT, Evaluation Type: Evaluation B (Post-1980)): no conclusion

O=[N+]([O-])c1c(O)ccc2ccccc12
mutagenic call [1]: active; positive

ClCC1(Cl)OC1Cl (stereo not drawn)
mutagenic call (Species/Cell Type: Neurospora crassa, Assay Type: Forward gene mutation, Assay Code: NEF+, Evaluation Type: Evaluation A (Pre-1980)): active; positive
mutagenic call [11]: active; positive

N#Cc1ccc2ccccc2c1
mutagenic call (Species/Cell Type: Allium cepa, Assay Type: Chromosome aberrations, Assay Code: ALC+D, Dose Response: With dose response, Evaluation Type: Evaluation A (Pre-1980)): active; positive

O[C@@H]1[C@@H](O)c2c(cc3ccc4cccc5ccc2c3c45)C2O[C@@H]21 (stereo partly drawn)
mutagenic call [1]: active; positive

NC(=O)c1cccc(N)c1
mutagenic call (Species/Cell Type: Chinese hamster ovary (CHO) cells, Assay Type: Forward gene mutation at the HPRT locus, Assay Code: CHOT, Evaluation Type: Evaluation B (Post-1980)): no conclusion
mutagenic call [10]: active; positive
mutagenic call (Species/Cell Type: Nonhuman, Assay Type: Sister-chromatid exchange (SCE) in vitro, Assay Code: SC2+D, Dose Response: With dose response, Evaluation Type: Evaluation B (Post-1980)): active; positive

CCCN(C)N=O
mutagenic call (Species/Cell Type: Chinese hamster lung (V79) cells, Assay Type: Forward gene mutation at the HPRT or ouabain locus, Assay Code: V79+, Evaluation Type: Evaluation A (Pre-1980)): active; positive

Cc1cc(O)c2c(c1)C(=O)c1cc(O)cc(O[C@@H]3O[C@H](CO)[C@@H](O)[C@H](O)[C@H]3O)c1C2=O
mutagenic call (Species/Cell Type: Salmonella typhimurium (one or more of the five standard strains: TA98, TA100, TA1535, TA1537, and TA1538), Assay Type: Histidine reverse gene mutation, Ames assay, Assay Code: SAL+*, Activation: With metabolic activation, Evaluation Type: Evaluation A (Pre-1980)): active; positive

OCCN(CCO)c1nc(-c2cccs2)nc2ccccc12
mutagenic call [5]: no conclusion

Clc1cc(Cl)c(OCC#CI)cc1Cl
mutagenic call [12]: inactive; negative

O=[N+]([O-])c1ccc(N=Nc2ccccc2)cc1
mutagenic call [1]: active; positive

COP(=S)(OC)SCc1nc(N)nc(N)n1
mutagenic call (Species/Cell Type: Hordeum vulgare (barley), Assay Type: Chromosome aberrations, Assay Code: HOC-, Evaluation Type: Evaluation A (Pre-1980)): inactive; negative

CCCCOc1ccc(CC(=O)NOC(=O)CC)cc1
mutagenic call (Species/Cell Type: Nonhuman, Assay Type: Sister-chromatid exchange (SCE) in vitro, Assay Code: SC2+, Evaluation Type: Evaluation B (Post-1980)): active; positive

O=C(Nc1cccc(Cl)c1)OCC#CCCl
mutagenic call [6]: active; positive

C=CC(OC(C)=O)c1ccccc1 (stereo not drawn)
mutagenic call [5]: no conclusion

[Cl][La]([Cl])[Cl]
mutagenic call [7]: inactive; negative

O=C=NCCCl
mutagenic call (Species/Cell Type: Chinese hamster lung (V79) cells, Assay Type: Forward gene mutation at the HPRT or ouabain locus, Assay Code: V79-, Evaluation Type: Evaluation A (Pre-1980)): inactive; negative

O=Cc1ccccc1
mutagenic call [11]: active; positive

CC(N)=S
mutagenic call (Species/Cell Type: Drosophila melanogaster, Assay Type: Sex-linked recessive lethal gene mutation, Assay Code: SRL+, Evaluation Type: Evaluation A (Pre-1980)): active; positive
mutagenic call (Species/Cell Type: Escherichia coli polA (W3110 vs P3478), Assay Type: Rec-assay, DNA effects (bacterial DNA repair), Assay Code: RE2-, Evaluation Type: Evaluation A (Pre-1980)): inactive; negative
mutagenic call (Species/Cell Type: Escherichia coli polA (W3119 vs P3478), Assay Type: Rec-assay, DNA effects (bacterial DNA repair), Assay Code: RE1T, Evaluation Type: Evaluation A (Pre-1980)): no conclusion
mutagenic call (Species/Cell Type: Fischer rat embryo (RLV/1706) cells, Assay Type: Cell transformation, viral enhanced, Assay Code: CTR+, Evaluation Type: Evaluation A (Pre-1980)): active; positive
mutagenic call [13]: active; positive
mutagenic call (Species/Cell Type: Mouse embryo (AKR/ME) cells, Assay Type: Cell transformation, Assay Code: CTK+, Evaluation Type: Evaluation A (Pre-1980)): active; positive
mutagenic call (Species/Cell Type: Mouse, Sex: Male, Assay Type: Sperm morphology, Assay Code: SPI-, Evaluation Type: Evaluation A (Pre-1980)): inactive; negative
call [8]: active; positive
mutagenic call (Species/Cell Type: Saccharomyces cerevisiae, Assay Type: Mitotic recombination or gene conversion, Assay Code: YEH+/-*, Activation: With metabolic activation, Evaluation Type: Evaluation A (Pre-1980)): inactive; positive without activation, negative with activation
mutagenic call [9]: inactive; negative
mutagenic call [3]: active; positive
mutagenic call [2]: active; positive

Nc1nc2n[nH]nc2c(=O)[nH]1
mutagenic call [12]: inactive; negative

CC(C)NCC(O)COc1cccc2[nH]ccc12 (stereo not drawn)
mutagenic call (Species/Cell Type: Mammalian polychromatic erythrocytes, Assay Type: Micronucleus test, chromosome aberrations, Assay Code: MNTT, Evaluation Type: Evaluation B (Post-1980)): no conclusion

CC(=O)NCc1nc(-c2ccc([N+](=O)[O-])o2)no1
mutagenic call [1]: active; positive

O=C(O)CN(CCN(CC(=O)O)CC(=O)O)CC(=O)O
mutagenic call (Species/Cell Type: Allium cepa, Assay Type: Chromosome aberrations, Assay Code: ALC+, Evaluation Type: Evaluation A (Pre-1980)): active; positive
mutagenic call (Species/Cell Type: Arabidopsis species, Assay Type: Gene mutation, Assay Code: ARM-, Evaluation Type: Evaluation A (Pre-1980)): inactive; negative
call (Species/Cell Type: Nonhuman, Assay Code: CCG-, Evaluation Type: Evaluation A (Pre-1980)): inactive; negative
mutagenic call [9]: inactive; negative

CC1(C)C(C=C(Cl)Cl)C1C(=O)OC(C#N)c1cccc(Oc2ccccc2)c1 (stereo not drawn)
mutagenic call (Species/Cell Type: Human diploid fibroblasts, Assay Type: Unscheduled DNA synthesis (UDS) in vitro, DNA effects, Assay Code: UDH-, Evaluation Type: Evaluation A (Pre-1980)): inactive; negative
mutagenic call [13]: active; positive
mutagenic call [4]: inactive; negative
